Assay results: US6489440B1, “Cyclic compounds” (Basilea Pharmaceutica AG, priority 1998, dated 2002)
Numbered stars: 1 amine (or outer) side, 2 acyl side, 3 side chain; on linkers, the order of the positions; unused ones are H or OH. Bridge positions count the residues as written; N and C are the ends. Square brackets hold non-standard residues; d marks the D form. Peptide text beside a SMILES is read from it. ξ: configuration not given here. X13 = CCCCCOc1ccc(-c2ccc(CC[C@H](CC(=O)[*:1])N[*:2])cc2)cc1; X12 = NCC(=O)Nc1cc(CC(N[*:1])C(=O)[*:2])ccc1O; X9 = CCCCCCCCCCCCC[C@H](CC(=O)[*:1])O[*:2]; X2 = NC(=O)CC(O)C(N[*:1])C(=O)[*:2]; ξDopa = NC(Cc1ccc(O)c(O)c1)C(=O)O; X1 = O=C(C1C(O)CCN1[*:1])[*:2]; ξY = NC(Cc1ccc(O)cc1)C(=O)O; ξHyp = O=C(O)C1CC(O)CN1; ξOrn = NCCCC(N)C(=O)O; ξT = CC(O)C(N)C(=O)O; ξV = CC(C)C(N)C(=O)O; ξP = O=C(O)C1CCCN1; ξA = CC(N)C(=O)O; Sar = CNCC(=O)O

Key:
[1] = tested on: mouse hepatocytes; test: In vitro hepatotoxicity test; format: cell-based; conditions: mouse hepatocyte monolayers exposed 1 day, morphological evaluation
From the text: The mouse hepatocytes were isolated by a collagenase digestion and cultured in microtest plates. The hepatocyte monolayers were exposed to the test Aerothricins in the culture system for 1 day. After the culture period, the hepatocytes were observed under a microscope and evaluated morphologically. The degree of the morphological alteration (degeneration) of the hepatocytes by the test Aerothricins were compared with WF 11243 and LY303366.

[2] = Solubility; conditions: solvents in which soluble
[3] = tested on: Candida albicans; test: In vivo antifungal efficacy, systemic candidiasis in mice; design: species or system Crj: CD-1 (ICR) mice; conditions: i.v., b.i.d×1 day followed by q.d.×2 days; from survival on day 14
Procedure: Mice of a conventional immunocompetent mouse strain, Crj: CD-1 (ICR) were used for experimental infection models of systemic candidiasis. 4 weeks old Crj: CD-1 (ICR) mice were used for systemic candidiasis by injecting Candida albicans 5×10^6 conidia/mouse via the tail vein. Treatments were given twice (0, 4 h after infection) on the first day and once daily on following 2 days for systemic candidiasis (b.i.d×1 day followed by q.d.×2 days), intravenously (i.v.). 50% of effective dose (ED50) values was calculated from the survival number at each dose on day 14.

Row | SMILES | Cytotoxicity to hepatocyte [1] | In vivo antifungal activity against systemic candidiasis in mice, ED50 on day 14 [3] | further results
1 | CCCCCCCCCCOc1ccc(CC[C@@H]2CC(=O)NC(C(C)O)C(=O)NC(C)C(=O)NC(Cc3ccc(O)cc3)C(=O)NC(C(C)C)C(=O)N3CC(O)CC3C(=O)NC(C(C)O)C(=O)NC(C(C)O)C(=O)N3CCC(O)C3C(=O)NC(C(O)CC(N)=O)C(=O)NCC(=O)NC(C(C)O)C(=O)NC(CCCN)C(=O)N2)cc1 (single isomer, unassigned) [Aerothricin 47] | >100 µg/mL | – | –
2 | CCCCCCCCCCCCC[C@@H]1CC(=O)NC(C(C)O)C(=O)NC(C)C(=O)NC(Cc2ccc(O)c(O)c2)C(=O)NC(C(C)C)C(=O)N2CC(O)CC2C(=O)NC(C(C)O)C(=O)NC(C(C)O)C(=O)N2CCC(O)C2C(=O)NC(C(O)CC(N)=O)C(=O)NCC(=O)NC(C(C)O)C(=O)NC(CCCN)C(=O)O1 (some centres unmarked) [Aerothricin 2] ([ξT][ξA][ξDopa][ξV][ξHyp][ξT][ξT][X1][X2]G[ξT][ξOrn]; linker N-C via X9) | – | – | Solubility [2]: Soluble: water, methanol, dimethylsulfoxide
3 | CCCCCCCCCCCCC[C@@H]1CC(=O)NC(C(C)O)C(=O)NC(C)C(=O)NC(Cc2ccc(OC)cc2)C(=O)NC(C(C)C)C(=O)N2CC(O)CC2C(=O)NC(C(C)O)C(=O)NC(C(C)O)C(=O)N2CCC(O)C2C(=O)NC(C(O)CC(N)=O)C(=O)NCC(=O)NC(C(C)O)C(=O)NC(CCCN)C(=O)O1 (some centres unmarked) [Aerothricin 5] ([ξT][ξA][ξY](Me)[ξV][ξHyp][ξT][ξT][X1][X2]G[ξT][ξOrn]; linker N-C via X9) | – | 0.3 mg/kg | –
4 | CCCCCCCCCCCCC[C@@H]1CC(=O)NC(C(C)O)C(=O)NC(C)C(=O)NC(Cc2ccc(O)cc2)C(=O)NC(C(C)C)C(=O)N2CC(O)CC2C(=O)NC(C(C)O)C(=O)NC(C(C)O)C(=O)N2CCC(O)C2C(=O)NC(C(O)CC(N)=O)C(=O)NCC(=O)NC(C(C)O)C(=O)NC(CCCNC(=O)CNC)C(=O)O1 (some centres unmarked) [Aerothricin 14] ([ξT][ξA][ξY][ξV][ξHyp][ξT][ξT][X1][X2]G[ξT][ξOrn](Sar); linker N-C via X9) | >100 µg/mL | – | –
5 | CCCCCCCCCCCCC[C@@H]1CC(=O)NC(C(C)O)C(=O)NC(C)C(=O)NC(Cc2ccc(O)cc2)C(=O)NC(C(C)C)C(=O)N2CC(O)CC2C(=O)NC(C(C)O)C(=O)NC(C(C)O)C(=O)N2CCC(O)C2C(=O)NC(C(O)CC(N)=O)C(=O)NCC(=O)NC(C(C)O)C(=O)NC(CCCNC(=O)C2CCCN2)C(=O)O1 (some centres unmarked) [Aerothricin 15] ([ξT][ξA][ξY][ξV][ξHyp][ξT][ξT][X1][X2]G[ξT][ξOrn](ξP); linker N-C via X9) | >100 µg/mL | – | –
6 | CCCCCCCCCCCCC[C@@H]1CC(=O)NC(C(C)O)C(=O)NC(C)C(=O)NC(Cc2ccc(O)c(NC(=O)CN)c2)C(=O)NC(C(C)C)C(=O)N2CC(O)CC2C(=O)NC(C(C)O)C(=O)NC(C(C)O)C(=O)N2CCC(O)C2C(=O)NC(C(O)CC(N)=O)C(=O)NCC(=O)NC(C(C)O)C(=O)NC(CCCNC(=O)CN)C(=O)O1 (some centres unmarked) [Aerothricin 21] ([ξT][ξA][X12][ξV][ξHyp][ξT][ξT][X1][X2]G[ξT][ξOrn](Gly); linker N-C via X9) | >100 µg/mL | – | –
7 | CCCCCCCCCCOc1ccc(CC[C@@H]2CC(=O)NC(C(C)O)C(=O)NC(C)C(=O)NC(Cc3ccc(O)cc3)C(=O)NC(C(C)C)C(=O)N3CC(O)CC3C(=O)NC(C(C)O)C(=O)NC(C(C)O)C(=O)N3CCC(O)C3C(=O)NC(C(O)CC(N)=O)C(=O)NCC(=O)NC(C(C)O)C(=O)NC(CCCN)C(=O)N2)cc1 (some centres unmarked) [Aerothricin 36] | – | 0.6 mg/kg | –
8 | CCCCCOc1ccc(-c2ccc(CC[C@@H]3CC(=O)NC(C(C)O)C(=O)NC(C)C(=O)NC(Cc4ccc(O)cc4)C(=O)NC(C(C)C)C(=O)N4CC(O)CC4C(=O)NC(C(C)O)C(=O)NC(C(C)O)C(=O)N4CCC(O)C4C(=O)NC(C(O)CC(N)=O)C(=O)NCC(=O)NC(C(C)O)C(=O)NC(CCCN)C(=O)N3)cc2)cc1 (some centres unmarked) [Aerothricin 41] ([ξT][ξA][ξY][ξV][ξHyp][ξT][ξT][X1][X2]G[ξT][ξOrn]; linker N-C via X13) | – | 0.3 mg/kg | –
